Experimental data: EPA's CvTdb concentration-time database

Experiments:
Assay in all cases: concentration in plasma after dosing
[1] = system: Rat; conditions: 24 h; dosed: Anthraquinone; 100 mg/kg; oral; Male; F344
[2] = system: Rat; conditions: dosed: Anthraquinone, 100 mg/kg, oral, Male, F344
[3] = system: Rat; conditions: dosed: Anthraquinone, 40 mg/kg, oral, Female, Harlan Sprague Dawley
[4] = system: Rat; conditions: dosed: Anthraquinone, 100 mg/kg, oral, Female, Harlan Sprague Dawley
[5] = system: Rat; conditions: dosed: Anthraquinone, 100 mg/kg, oral, Female, Harlan Sprague Dawley; remark: listed apart in the source
[6] = system: Rat; conditions: dosed: Anthraquinone, 40 mg/kg, oral, Female, F344
[7] = system: Rat; conditions: dosed: Anthraquinone, 40 mg/kg, oral, Male, Harlan Sprague Dawley
[8] = system: Rat; conditions: dosed: Anthraquinone, 100 mg/kg, oral, Male, F344; remark: listed apart in the source
[9] = system: Rat; conditions: dosed: Anthraquinone, 100 mg/kg, oral, Male, F344; remark: listed apart in the source
[10] = system: Rat; conditions: dosed: Anthraquinone, 400 mg/kg, oral, Male, F344
[11] = system: Rat; conditions: dosed: Anthraquinone, 100 mg/kg, oral, Male, F344; remark: listed apart in the source
[12] = system: Rat; conditions: dosed: Anthraquinone, 100 mg/kg, oral, Female, Harlan Sprague Dawley; remark: listed apart in the source
[13] = system: Rat; conditions: dosed: Anthraquinone, 40 mg/kg, oral, Female, Harlan Sprague Dawley; remark: listed apart in the source
[14] = system: Rat; conditions: dosed: Anthraquinone, 400 mg/kg, oral, Male, F344; remark: listed apart in the source
[15] = system: Rat; conditions: dosed: Anthraquinone, 100 mg/kg, oral, Female, F344
[16] = system: Rat; conditions: dosed: Anthraquinone, 40 mg/kg, oral, Male, Harlan Sprague Dawley; remark: listed apart in the source
[17] = system: Rat; conditions: dosed: Anthraquinone, 100 mg/kg, oral, Male, F344; remark: listed apart in the source
[18] = system: Rat; conditions: dosed: Anthraquinone, 400 mg/kg, oral, Male, F344; remark: listed apart in the source
[19] = system: Rat; conditions: 24 h; dosed: Anthraquinone; 100 mg/kg; oral; Male; F344; remark: listed apart in the source
[20] = system: Rat; conditions: dosed: Anthraquinone, 100 mg/kg, oral, Male, F344; remark: listed apart in the source
[21] = system: Rat; conditions: dosed: Anthraquinone, 40 mg/kg, oral, Male, Harlan Sprague Dawley; remark: listed apart in the source
[22] = system: Rat; conditions: dosed: Anthraquinone, oral
[23] = system: Rat; conditions: dosed: Anthraquinone, 400 mg/kg, oral, Male, F344; remark: listed apart in the source
[24] = system: Rat; conditions: dosed: Anthraquinone, 40 mg/kg, oral, Male, Harlan Sprague Dawley; remark: listed apart in the source
[25] = system: Rat; conditions: dosed: Anthraquinone, 40 mg/kg, oral, Female, F344; remark: listed apart in the source
[26] = system: Rat; conditions: dosed: Anthraquinone, 40 mg/kg, oral, Female, Harlan Sprague Dawley; remark: listed apart in the source
[27] = system: Rat; conditions: dosed: Anthraquinone, 100 mg/kg, oral, Female, F344; remark: listed apart in the source
[28] = system: Rat; conditions: dosed: Anthraquinone, 100 mg/kg, oral, Male, F344; remark: listed apart in the source
[29] = system: Rat; conditions: dosed: Anthraquinone, 40 mg/kg, oral, Female, Harlan Sprague Dawley; remark: listed apart in the source
[30] = system: Rat; conditions: 24 h; dosed: Anthraquinone; 40 mg/kg; oral; Male; F344
[31] = system: Rat; conditions: dosed: Anthraquinone, 400 mg/kg, oral, Male, F344; remark: listed apart in the source
[32] = system: Rat; conditions: dosed: Anthraquinone, 40 mg/kg, oral, Female, Harlan Sprague Dawley; remark: listed apart in the source
[33] = system: Rat; conditions: dosed: Anthraquinone, 100 mg/kg, oral, Male, F344; remark: listed apart in the source
[34] = system: Rat; conditions: dosed: Anthraquinone, 40 mg/kg, oral, Female, Harlan Sprague Dawley; remark: listed apart in the source
[35] = system: Rat; conditions: dosed: Anthraquinone, 100 mg/kg, oral, Female, Harlan Sprague Dawley; remark: listed apart in the source
[36] = system: Rat; conditions: dosed: Anthraquinone, 100 mg/kg, oral, Male, F344; remark: listed apart in the source

O=C1c2ccccc2C(=O)c2ccccc21 [Anthraquinone]
Conditions	concentration in plasma [ng/mL]
[1]	210
[19]	259
[30]	66

Conditions	concentration in plasma [ng/mL]
[2], 1 h	72
[2], 18 h	596
[3], 1 h	65
[3], 18 h	87
[4], 4 h	262
[4], 8 h	595
[5], 2 h	192
[5], 12 h	818
[6], 1 h	61
[6], 18 h	131
[7], 2 h	99
[7], 12 h	242
[8], 0.5 h	41
[8], 24 h	433
[9], 2 h	120
[9], 12 h	671
[10], 2 h	352
[10], 12 h	2500
[11], 2 h	233
[11], 12 h	719
[12], 2 h	210
[12], 12 h	880
[13], 4 h	111
[13], 8 h	255
[14], 0.5 h	148
[14], 24 h	2120
[15], 1 h	63
[15], 18 h	469
[16], 4 h	117
[16], 8 h	241
[17], 1 h	55
[17], 18 h	429
[18], 1 h	129
[18], 18 h	2320
[20], 0.5 h	28
[20], 24 h	197
[21], 2 h	101
[21], 12 h	255
[23], 1 h	345
[23], 18 h	2880
[24], 4 h	131
[24], 8 h	293
[25], 1 h	36
[25], 18 h	157
[26], 1 h	57
[26], 18 h	124
[27], 1 h	61
[27], 18 h	538
[28], 4 h	323
[28], 8 h	758
[29], 2 h	90
[29], 12 h	224
[31], 0.5 h	163
[31], 24 h	1970
[32], 4 h	136
[32], 8 h	280
[33], 0.5 h	27
[33], 24 h	349
[34], 2 h	128
[34], 12 h	238
[35], 4 h	255
[35], 8 h	992
[36], 4 h	205
[36], 8 h	522

concentration in plasma [ng/mL], [22]
Conditions	0.5 h	1 h	2 h	4 h	8 h	12 h	18 h	24 h
40 mg/kg, Female, F344	–	30	–	–	–	–	191	–
40 mg/kg, Female, Harlan Sprague Dawley	–	61	154	149	249	224	103	65
40 mg/kg, Male, F344	–	–	–	–	–	–	–	26
40 mg/kg, Male, Harlan Sprague Dawley	–	–	87	101	203	204	–	–
100 mg/kg, Female, F344	–	66	–	–	–	–	652	–
100 mg/kg, Female, Harlan Sprague Dawley	–	–	127	232	721	610	–	–
100 mg/kg, Male, F344	–	63	157	259	611	696	415	261
400 mg/kg, Male, F344	106	235	285	–	–	2590	2700	1940
